Patent US20240391900A1, “RIP1 KINASE INHIBITOR AND USE THEREOF” (SIRONAX (BEIJING) CO., LTD., priority 2021, published 2024)

Each molecule was assayed on HT-29 human colon cancer cells (assay: In vitro biological activity assay: inhibition of TNFα/SmacM/Z_VAD FMK-induced programmed necrosis, CellTiter-Glo viability). Conditions: HT-29 cells, necrosis induced with TNF-α 100 ng/mL, SmacM 100 nM, Z_VAD-FMK 10 μM, overnight, cell viability by chemiluminescence.
Type: cell-based
Experimental: In order to verify the inhibitory effect of the compounds of the present disclosure on programmed necrosis at the cellular level, a type of cells closely related to the RIP1 pathway, namely HT-29 human colon cancer cells, were selected. The used activation mode is a combination of tumor necrosis factor (TNFα), cysteine aspartate activator mimic (SmacM) and pan-caspase inhibitor Z_VAD FMK, and the cell viability was calculated by detecting chemiluminescence values, thus obtaining the biological activity of the compound inhibiting the programmed necrosis of cells.
Cell line: HT-29 (ATCC® HTB-38™)
• 2.1. The Growth Status of HT-29 Cells was Regularly Checked to Ensure their Normal Growth. • 2.2. McCOY's 5A culture medium containing 10% FBS was preheated in a 37° C. water bath for 30 minutes. When the culture medium was ready for use, the cell passage and inoculation was performed in a Class II safety cabinet with aseptic technique. • 2.3. In a T75 culture flask, when the growth density of cells reached the abundance of approximately 80%, the culture medium was aspirated and cells were washed twice with pre-warmed PBS. • 2.4. 2-3 mL of trypsin (Gibco, catalog number 25200-056) was added and the T75 culture flask was transferred to a 37° C. incubator. • 2.5. After 3-5 minutes, the side of the culture flask was tapped and examined under a microscope for detachment of the cells to the flask. If necessary, the cells were placed back into the incubator to wait for another 5-10 minutes until 85% of the cells were detached from each other. • 2.6. 6-9 mL of complete cell culture medium was quickly added to terminate the trypsin reaction, and then the cells were transferred to a sterile 15 mL centrifuge tube. The cells were pelleted by centrifugation at 300 g for 5-7 minutes in a centrifuge, and then the supernatant was decanted. • 2.7. The cells were resuspended in 10 mL of fresh cell culture medium and the cells were counted by using a hemocytometer. • 2.8. 3,000 cells contained in 100 μL were inoculated into each well of a sterile 96-well cell culture plate (Corning 3903) and cultured overnight at 37° C. under 5% CO2.
• 3.1. All batches of compounds were dissolved in dimethyl sulfoxide (DMSO) to prepare a 20 mM stock. • 3.2. 3 μL of 20 mM stock of each compound was added to 27 μL of DMSO and mixed thoroughly, and then diluted at a dilution ratio of […] (20 μL compound+40 μL DMSO) until the 10-12 points ended. After the compounds were diluted, they were set aside for use. • 3.3. The cell culture plate was taken out from the incubator, washed once with PBS, and replaced with a fresh culture medium free of serum. A mixture of TNF-α (100 ng/mL), SMAC mimic (SmacM, 100 nM) and Z_VAD-FMK (10 μM) was added to induce the programmed necrosis in HT-29 cells. • 3.4. The compound dilution plate was prepared, 0.5 μL of the diluted compound was added to the corresponding 96-well plate, and mixed gently. Two duplicate wells were prepared for each compound. • 3.5. The treated 96-well plate to which the compounds had been added was placed back into the 37° C. incubator containing 5% CO2 and incubated overnight.
The luminescence cell viability detection kit was used to calculate the activity of the compound by measuring the ATP content in viable cells. • 4.1. The CellTiter-Glo® buffer and dry powdered substrate were equilibrated to room temperature before use. • 4.2. The CellTiter-Glo® substrate was resuspended with Cell Titer-Glo® buffer, then homogeneously mixed by gently vortexing. • 4.3. The cell culture plate was taken out and equilibrated at room temperature for 10 minutes (usually not suitable if more than 30 minutes). • 4.4. 20 μL of enzyme/substrate mixture was added into the 96-well assay plate with a multi-channel pipettor. • 4.5. The 96-well assay plate was placed on a shaker and the content was mixed for 2-3 minutes to promote the cell lysis. • 4.6. […]
Molecule `C(#Cc1cnc2cccnn12)c1cc(-n2cc3c(n2)C(c2ccccc2)CC3)ncn1` (stereo not drawn) [Compound 8, 3-((6-(6-phenyl-5,6-dihydrocyclopenta[c]pyrazol-2 (4H)-yl)pyrimidine-4-yl)ethynyl)imidazo[1,2-b]pyridazine] has an EC50 of 100 to 1000 nM.
Work on `Oc1cnc(C#Cc2cncc(-n3cc4c(n3)C(c3ccccc3)CC4)c2)cn1` (stereo not drawn) [Compound 12, 5-((5-(6-phenyl-5,6-dihydrocyclopenta[c]pyrazol-2 (4H)-yl)pyridin-3-yl)ethynyl)pyrazine-2-ol] yielded an EC50 greater than 1000 nM.
With `Nc1ncc(C#Cc2cncc(-n3cc4c(n3)[C@@H](c3ccccc3)CC4)c2)cn1` [Compound 13, (R)-5-((5-(6-phenyl-5,6-dihydrocyclopenta[c]pyrazol-2 (4H)-yl)pyridin-3-yl)ethynyl)pyrimidin-2-amine] the EC50 was no more than 100 nM.
Work on `Nc1ccc(C#Cc2cncc(-n3cc4c(n3)C(c3ccccc3)CC4)c2)nn1` (stereo not drawn) [Compound 17, 6-((5-(6-phenyl-5,6-dihydrocyclopenta[c]pyrazol-2 (4H)-yl)pyridin-3-yl)ethynyl)pyridazine-3-amine] yielded an EC50 of no more than 100 nM.
`Nc1cnc(C#Cc2cncc(-n3cc4c(n3)C(c3ccccc3)CC4)c2)cn1` (stereo not drawn) [Compound 18, 5-((5-(6-phenyl-5,6-dihydrocyclopenta[c]pyrazol-2 (4H)-yl)pyridin-3-yl)ethynyl)pyrazine-2-amine] showed an EC50 of no more than 100 nM.
With `Nc1ncc(C#Cc2cncc(-n3cc4c(n3)C(c3cncc(F)c3)CC4)c2)cn1` (stereo not drawn) [Compound 19, 5-((5-(6-(5-fluoropyridin-3-yl)-5,6-dihydrocyclopenta[c]pyrazol-2 (4H)-yl)pyridin-3-yl)ethynyl)pyrimidin-2-amine] the EC50 was no more than 100 nM.
For `N#Cc1cc(F)cc(C2CCc3cn(-c4cncc(C#Cc5cnc(N)nc5)c4)nc32)c1` (stereo not drawn) [Compound 20, 3-(2-(5-((2-aminopyrimidin-5-yl)ethynyl)pyridin-3-yl)-2,4,5,6-tetrahydrocyclopenta[c]pyrazol-6-yl)-5-fluorobenzonitrile], the EC50 was no more than 100 nM.
Molecule `Cn1cc(C#Cc2cncc(-n3cc4c(n3)[C@H](c3ccccc3)CC4)c2)cnc1=O` [Compound 21, (S)-1-methyl-5-((5-(6-phenyl-5,6-dihydrocyclopenta[c]pyrazol-2 (4H)-yl)pyridin-3-yl)ethynyl)pyrimidine-2 (1H)-one] has an EC50 of 100 to 1000 nM.
`Cc1cnn(C)c1C#Cc1cccc(-n2cc3c(n2)C(c2ccccc2)CC3)c1` (stereo not drawn) [Compound 22, 2-(3-((1,4-dimethyl-1H-pyrazole-5-yl)ethynyl)phenyl)-6-phenyl-2,4,5,6-tetrahydrocyclopenta[c]pyrazole] gave an EC50 of no more than 100 nM.
Molecule `Cn1nccc1C#Cc1cccc(-n2cc3c(n2)C(c2ccccc2)CC3)c1` (stereo not drawn) [Compound 23, 2-(3-((1-methyl-1H-pyrazole-5-yl)ethynyl)phenyl)-6-phenyl-2,4,5,6-tetrahydrocyclopenta[c]pyrazole] has an EC50 of no more than 100 nM.
Molecule `Cn1cc(C#Cc2cccc(-n3cc4c(n3)C(c3ccccc3)CC4)c2)cn1` (stereo not drawn) [Compound 25, 2-(3-((1-methyl-iH-pyrazole-4-yl)ethynyl)phenyl)-6-phenyl-2,4,5,6-tetrahydrocyclopenta[c]pyrazole] has an EC50 of no more than 100 nM.
`C(#Cc1cnc2cccnn12)c1cncc(-n2cc3c(n2)C(c2ccccc2)CC3)n1` (stereo not drawn) [Compound 26, 3-((6-(6-phenyl-5,6-dihydrocyclopenta[c]pyrazol-2 (4H)-yl)pyrazin-2-yl)ethynyl)imidazo[1,2-b]pyridazine] was tested, and the EC50 was no more than 100 nM.
Molecule `C(#Cc1cnc2cccnn12)c1ccnc(-n2cc3c(n2)C(c2ccccc2)CC3)c1` (stereo not drawn) [Compound 27] has an EC50 of no more than 100 nM.
`Nc1ncc(C#Cc2cncc(-n3cc4c(n3)C(c3ccccc3)CC4)n2)cn1` (stereo not drawn) [Compound 29] showed an EC50 of no more than 100 nM.
`Cc1cncc(C#Cc2cccc(-n3cc4c(n3)C(c3ccccc3)CC4)c2)c1` (stereo not drawn) [Compound 34, 2-(3-((5-methylpyridin-3-yl)ethynyl)phenyl)-6-phenyl-2,4,5,6-tetrahydrocyclopenta[c]pyrazole] gave an EC50 of no more than 100 nM.
With `Cc1ccc(C#Cc2cccc(-n3cc4c(n3)C(c3ccccc3)CC4)c2)cn1` (stereo not drawn) [Compound 35, 2-(3-((6-methylpyridin-3-yl)ethynyl)phenyl)-6-phenyl-2,4,5,6-tetrahydrocyclopenta[c]pyrazole] the EC50 was no more than 100 nM.
`Clc1ncc(C#Cc2cncc(-n3cc4c(n3)C(c3ccccc3)CC4)c2)cn1` (stereo not drawn) [Compound 41, 2-(5-((2-chloropyrimidin-5-yl)ethynyl)pyridin-3-yl)-6-phenyl-2,4,5,6-tetrahydrocyclopenta[c]pyrazole] was tested, and the EC50 was 100 to 1000 nM.
`Cc1c(C#Cc2cnc(N)nc2)cncc1-n1cc2c(n1)C(c1ccccc1)CC2` (stereo not drawn) [Compound 43, 5-((4-methyl-5-(6-phenyl-5,6-dihydrocyclopenta[c]pyrazol-2 (4H)-yl)pyridine-3-yl)ethynyl)pyrimidin-2-amine] was tested, and the EC50 was no more than 100 nM.
`Nc1ncc(C#Cc2cncc(-n3cc4c(n3)[C@H](c3cccc(F)c3)CC4)c2)cn1` [Compound 46] was tested, and the EC50 was no more than 100 nM.
`Nc1ncc(C#Cc2cncc(-n3cc4c(n3)[C@@H](c3cccc(F)c3)CC4)c2)cn1` [Compound 47, (R)-5-((5-(6-(3-fluorophenyl)-5,6-dihydrocyclopenta[c]pyrazol-2 (4H)-yl)pyridine-3-yl)ethynyl)pyrimidin-2-amine] was tested, and the EC50 was no more than 100 nM.
`Nc1ncc(C#Cc2cncc(-n3cc4c(n3)C(c3cc(F)cc(F)c3)CC4)c2)cn1` (stereo not drawn) [Compound 48] gave an EC50 of no more than 100 nM.
`Nc1ncc(C#Cc2cncc(-n3cc4c(n3)[C@@H](c3cc(F)cc(F)c3)CC4)c2)cn1` [Compound 49, (R)-5-((5-(6-(3,5-difluorophenyl)-5,6-dihydrocyclopenta[c]pyrazol-2 (4H)-yl)pyridin-3-yl)ethynyl)pyrimidin-2-amine] was tested, and the EC50 was no more than 100 nM.
In the case of `Nc1ncc(C#Cc2cncc(-n3cc4c(n3)[C@H](c3cc(F)cc(F)c3)CC4)c2)cn1` [Compound 50, (S)-5-((5-(6-(3,5-difluorophenyl)-5,6-dihydrocyclopenta[c]pyrazol-2 (4H)-yl)pyridin-3-yl)ethynyl)pyrimidin-2-amine], the EC50 is reported as no more than 100 nM.
`C(#Cc1cnc2cccnn12)c1cccc(-n2nc3c(n2)C(c2ccccc2)CC3)c1` (stereo not drawn) [Compound 53, 3-((3-(4-phenyl-5,6-dihydrocyclopenta[d][1,2,3]triazol-2 (4H)-yl)phenyl)ethynyl)imidazo[1,2-b]pyridazine] showed an EC50 of no more than 100 nM.
`Cn1c(-n2nc3c(n2)C(c2cncc(F)c2)CC3)cc(C#Cc2cnc(N)nc2)cc1=O` (stereo not drawn) [Compound 59, 4-((2-aminopyrimidin-5-yl)ethynyl)-6-(4-(5-fluoropyridin-3-yl)-5,6-dihydrocyclopenta[d][1,2,3]triazol-2 (4H)-yl)-1-methylpyridin-2 (1H)-one] gave an EC50 of no more than 100 nM.
Molecule `Nc1ncc(C#Cc2c[nH]c(=O)c(-n3nc4c(n3)C(c3ccccc3)CC4)c2)cn1` (stereo not drawn) [Compound 60, 5-((2-aminopyrimidin-5-yl)ethynyl)-3-(4-phenyl-5,6-dihydrocyclopenta[d][1,2,3]triazol-2 (4H)-yl)pyridine-2 (1H)-one] has an EC50 greater than 1000 nM.
Work on `Cc1ncc(C#Cc2cnc(N)nc2)cc1-n1nc2c(n1)C(C1CCCCC1)CC2` (stereo not drawn) [Compound 64, 5-((5-(4-cyclohexyl-5,6-dihydrocyclopenta[d][1,2,3]triazol-2 (4H)-yl)-6-methylpyridin-3-yl)ethynyl)pyrimidin-2-amine] yielded an EC50 of no more than 100 nM.
